The source of these data is ChEMBL document CHEMBL5303573, “Mapping human microbiome drug metabolism by gut bacteria and their genes” (Nature, 2019).

The first data set can be described thus: The drug is tested on Bifidobacterium longum subsp. Infantis strain: CCUG52486 for biotransformation. The drug concentrations were measured before and after a 12-h incubation by liquid-chromatography-coupled mass spectrometry (LC–MS). The settings on record: 2 µM.
For the compound `CC(C)(C(=O)O)c1ccc(C(O)CCCN2CCC(C(O)(c3ccccc3)c3ccccc3)CC2)cc1` (stereo unspecified) [FEXOFENADINE], the “Bacterial Biotransformation” value is “Compound NOT metabolized”.

`Cc1cc2c(cc1S(N)(=O)=O)S(=O)(=O)CCC2`: the “Bacterial Biotransformation” value is given as “Compound NOT metabolized”.

Take `CN(C)CC(c1ccc(O)cc1)C1(O)CCCCC1.O=C(O)CCC(=O)O` (stereo unspecified) [DESVENLAFAXINE SUCCINATE]: the “Bacterial Biotransformation” value is on record as “Compound NOT metabolized”.

A further data set can be described thus: The drug is tested on Bifidobacterium ruminantium strain: fecal isolate for biotransformation. The drug concentrations were measured before and after a 12-h incubation by liquid-chromatography-coupled mass spectrometry (LC–MS). The settings on record: 2 µM.
As to `CC(C)(C(=O)O)c1ccc(C(O)CCCN2CCC(C(O)(c3ccccc3)c3ccccc3)CC2)cc1` (stereo unspecified) [FEXOFENADINE], the “Bacterial Biotransformation” value is “Compound NOT metabolized”.

Regarding `Cc1cc2c(cc1S(N)(=O)=O)S(=O)(=O)CCC2`, the “Bacterial Biotransformation” value is reported as “Compound NOT metabolized”.

The nature of a further data set: The drug is tested on Collinsella aerofaciens strain: ATCC25986 for biotransformation. The drug concentrations were measured before and after a 12-h incubation by liquid-chromatography-coupled mass spectrometry (LC–MS). The settings on record: 2 µM.
For `CC(C)(C(=O)O)c1ccc(C(O)CCCN2CCC(C(O)(c3ccccc3)c3ccccc3)CC2)cc1` (stereo unspecified) [FEXOFENADINE], the “Bacterial Biotransformation” value is on record as “Compound NOT metabolized”.

Take `Cc1cc2c(cc1S(N)(=O)=O)S(=O)(=O)CCC2`: the “Bacterial Biotransformation” value is on record as “Compound NOT metabolized”.

In the case of `CN(C)CC(c1ccc(O)cc1)C1(O)CCCCC1.O=C(O)CCC(=O)O` (stereo unspecified) [DESVENLAFAXINE SUCCINATE], the “Bacterial Biotransformation” value is recorded as “Compound NOT metabolized”.

A short description of a further data set: The drug is tested on Bacteroides dorei strain: DSM17855 for biotransformation. The drug concentrations were measured before and after a 12-h incubation by liquid-chromatography-coupled mass spectrometry (LC–MS). The settings on record: phocaeicola dorei, 2 µM.
As to `CC(C)(C(=O)O)c1ccc(C(O)CCCN2CCC(C(O)(c3ccccc3)c3ccccc3)CC2)cc1` (stereo unspecified) [FEXOFENADINE], the “Bacterial Biotransformation” value is recorded as “Compound NOT metabolized”.

As for `Cc1cc2c(cc1S(N)(=O)=O)S(=O)(=O)CCC2`, the “Bacterial Biotransformation” value is “Compound NOT metabolized”.

Take `CN(C)CC(c1ccc(O)cc1)C1(O)CCCCC1.O=C(O)CCC(=O)O` (stereo unspecified) [DESVENLAFAXINE SUCCINATE]: the “Bacterial Biotransformation” value was “Compound NOT metabolized”.

The nature of the next data set: The drug is tested on Bacteroides finegoldii strain: DSM17565 for biotransformation. The drug concentrations were measured before and after a 12-h incubation by liquid-chromatography-coupled mass spectrometry (LC–MS). The settings on record: 2 µM.
For `CC(C)(C(=O)O)c1ccc(C(O)CCCN2CCC(C(O)(c3ccccc3)c3ccccc3)CC2)cc1` (stereo unspecified) [FEXOFENADINE], the “Bacterial Biotransformation” value was “Compound NOT metabolized”.

Take `CN(C)CC(c1ccc(O)cc1)C1(O)CCCCC1.O=C(O)CCC(=O)O` (stereo unspecified) [DESVENLAFAXINE SUCCINATE]: the “Bacterial Biotransformation” value is recorded as “Compound NOT metabolized”.

A short description of a further data set: The drug is tested on Bacteroides fragilis strain: HMW615 for biotransformation. The drug concentrations were measured before and after a 12-h incubation by liquid-chromatography-coupled mass spectrometry (LC–MS). The settings on record: 2 µM.
`CC(C)(C(=O)O)c1ccc(C(O)CCCN2CCC(C(O)(c3ccccc3)c3ccccc3)CC2)cc1` (stereo unspecified) [FEXOFENADINE]: the “Bacterial Biotransformation” value is “Compound NOT metabolized”.

Consider `Cc1cc2c(cc1S(N)(=O)=O)S(=O)(=O)CCC2`, for which the “Bacterial Biotransformation” value is on record as “Compound NOT metabolized”.

A further data set in a line: The drug is tested on Bacteroides sp. WH2 strain: WH2 for biotransformation. The drug concentrations were measured before and after a 12-h incubation by liquid-chromatography-coupled mass spectrometry (LC–MS). The settings on record: bacteroides sp. wh2, 12 h, 2 µM.
Turning to `CC(C)(C(=O)O)c1ccc(C(O)CCCN2CCC(C(O)(c3ccccc3)c3ccccc3)CC2)cc1` (stereo unspecified) [FEXOFENADINE], the “Bacterial Biotransformation” value is recorded as “Compound NOT metabolized”.

Take `Cc1cc2c(cc1S(N)(=O)=O)S(=O)(=O)CCC2`: the “Bacterial Biotransformation” value is listed as “Compound NOT metabolized”.

As to `CN(C)CC(c1ccc(O)cc1)C1(O)CCCCC1.O=C(O)CCC(=O)O` (stereo unspecified) [DESVENLAFAXINE SUCCINATE], the “Bacterial Biotransformation” value is “Compound NOT metabolized”.

The next data set in a line: The drug is tested on Bacteroides xylanisolvens strain: DSM18836 for biotransformation. The drug concentrations were measured before and after a 12-h incubation by liquid-chromatography-coupled mass spectrometry (LC–MS). The settings on record: 2 µM.
With `Cc1cc2c(cc1S(N)(=O)=O)S(=O)(=O)CCC2`, the “Bacterial Biotransformation” value is “Compound NOT metabolized”.

Regarding `CN(C)CC(c1ccc(O)cc1)C1(O)CCCCC1.O=C(O)CCC(=O)O` (stereo unspecified) [DESVENLAFAXINE SUCCINATE], the “Bacterial Biotransformation” value is given as “Compound NOT metabolized”.

The next data set in a line: The drug is tested on Anaerotruncus colihominis strain: DSM17241 for biotransformation. The drug concentrations were measured before and after a 12-h incubation by liquid-chromatography-coupled mass spectrometry (LC–MS). The settings on record: 2 µM.
With `CC(C)(C(=O)O)c1ccc(C(O)CCCN2CCC(C(O)(c3ccccc3)c3ccccc3)CC2)cc1` (stereo unspecified) [FEXOFENADINE], the “Bacterial Biotransformation” value was “Compound NOT metabolized”.

Consider `CN(C)CC(c1ccc(O)cc1)C1(O)CCCCC1.O=C(O)CCC(=O)O` (stereo unspecified) [DESVENLAFAXINE SUCCINATE], for which the “Bacterial Biotransformation” value is recorded as “Compound NOT metabolized”.

The nature of the next data set: The drug is tested on Clostridium ramosum strain: DSM1402 for biotransformation. The drug concentrations were measured before and after a 12-h incubation by liquid-chromatography-coupled mass spectrometry (LC–MS). The settings on record: thomasclavelia ramosa, 2 µM.
Take `CN(C)CC(c1ccc(O)cc1)C1(O)CCCCC1.O=C(O)CCC(=O)O` (stereo unspecified) [DESVENLAFAXINE SUCCINATE]: the “Bacterial Biotransformation” value is on record as “Compound NOT metabolized”.

A further data set is described as follows: The drug is tested on Eubacterium hallii strain: DSM3353 for biotransformation. The drug concentrations were measured before and after a 12-h incubation by liquid-chromatography-coupled mass spectrometry (LC–MS). The settings on record: anaerobutyricum hallii, 2 µM.
Turning to `CC(C)(C(=O)O)c1ccc(C(O)CCCN2CCC(C(O)(c3ccccc3)c3ccccc3)CC2)cc1` (stereo unspecified) [FEXOFENADINE], the “Bacterial Biotransformation” value is on record as “Compound NOT metabolized”.

With `Cc1cc2c(cc1S(N)(=O)=O)S(=O)(=O)CCC2`, the “Bacterial Biotransformation” value is recorded as “Compound NOT metabolized”.

Regarding `CN(C)CC(c1ccc(O)cc1)C1(O)CCCCC1.O=C(O)CCC(=O)O` (stereo unspecified) [DESVENLAFAXINE SUCCINATE], the “Bacterial Biotransformation” value was “Compound NOT metabolized”.

The nature of the next data set: The drug is tested on Eubacterium ventriosum strain: ATCC27560 for biotransformation. The drug concentrations were measured before and after a 12-h incubation by liquid-chromatography-coupled mass spectrometry (LC–MS). The class given is ADME. Also noted: dose 2 uM, timepoint 0 vs 12 hours. The settings on record: 2 µM.
With `Cc1cc2c(cc1S(N)(=O)=O)S(=O)(=O)CCC2`, the “Bacterial Biotransformation” value is on record as “Compound NOT metabolized”.

Take `CN(C)CC(c1ccc(O)cc1)C1(O)CCCCC1.O=C(O)CCC(=O)O` (stereo unspecified) [DESVENLAFAXINE SUCCINATE]: the “Bacterial Biotransformation” value is “Compound NOT metabolized”.

The next data set can be described thus: The drug is tested on Ruminococcus gnavus strain: ATCC29149 for biotransformation. The drug concentrations were measured before and after a 12-h incubation by liquid-chromatography-coupled mass spectrometry (LC–MS). The settings on record: mediterraneibacter gnavus, 2 µM.
In the case of `CC(C)(C(=O)O)c1ccc(C(O)CCCN2CCC(C(O)(c3ccccc3)c3ccccc3)CC2)cc1` (stereo unspecified) [FEXOFENADINE], the “Bacterial Biotransformation” value is reported as “Compound NOT metabolized”.

For the compound `Cc1cc2c(cc1S(N)(=O)=O)S(=O)(=O)CCC2`, the “Bacterial Biotransformation” value is recorded as “Compound NOT metabolized”.

`CN(C)CC(c1ccc(O)cc1)C1(O)CCCCC1.O=C(O)CCC(=O)O` (stereo unspecified) [DESVENLAFAXINE SUCCINATE]: the “Bacterial Biotransformation” value was “Compound NOT metabolized”.

Another data set in a line: The drug is tested on Providencia stuartii strain: ATCC25827 for biotransformation. The drug concentrations were measured before and after a 12-h incubation by liquid-chromatography-coupled mass spectrometry (LC–MS). The settings on record: 2 µM.
For `CC(C)(C(=O)O)c1ccc(C(O)CCCN2CCC(C(O)(c3ccccc3)c3ccccc3)CC2)cc1` (stereo unspecified) [FEXOFENADINE], the “Bacterial Biotransformation” value is “Compound NOT metabolized”.

As for `Cc1cc2c(cc1S(N)(=O)=O)S(=O)(=O)CCC2`, the “Bacterial Biotransformation” value is “Compound NOT metabolized”.

With `CN(C)CC(c1ccc(O)cc1)C1(O)CCCCC1.O=C(O)CCC(=O)O` (stereo unspecified) [DESVENLAFAXINE SUCCINATE], the “Bacterial Biotransformation” value is “Compound NOT metabolized”.

The conditions of another data set: bacteroides fragilis, 12 h, 2 µM.
Description: The drug is tested on Bacteroides fragilis strain: NCTC 9343 for biotransformation. The drug concentrations were measured before and after a 12-h incubation by liquid-chromatography-coupled mass spectrometry (LC–MS)
With `CC(C)(C(=O)O)c1ccc(C(O)CCCN2CCC(C(O)(c3ccccc3)c3ccccc3)CC2)cc1` (stereo unspecified) [FEXOFENADINE], the “Bacterial Biotransformation” value is given as “Compound NOT metabolized”.

With `Cc1cc2c(cc1S(N)(=O)=O)S(=O)(=O)CCC2`, the “Bacterial Biotransformation” value is “Compound NOT metabolized”.

Regarding `CN(C)CC(c1ccc(O)cc1)C1(O)CCCCC1.O=C(O)CCC(=O)O` (stereo unspecified) [DESVENLAFAXINE SUCCINATE], the “Bacterial Biotransformation” value is listed as “Compound NOT metabolized”.

The conditions of a further data set: bacteroides intestinalis, 12 h, 2 µM.
Description: The drug is tested on Bacteroides intestinalis strain: DSM17393 for biotransformation. The drug concentrations were measured before and after a 12-h incubation by liquid-chromatography-coupled mass spectrometry (LC–MS)
Take `CC(C)(C(=O)O)c1ccc(C(O)CCCN2CCC(C(O)(c3ccccc3)c3ccccc3)CC2)cc1` (stereo unspecified) [FEXOFENADINE]: the “Bacterial Biotransformation” value is reported as “Compound NOT metabolized”.

Regarding `Cc1cc2c(cc1S(N)(=O)=O)S(=O)(=O)CCC2`, the “Bacterial Biotransformation” value is reported as “Compound NOT metabolized”.

For the compound `CN(C)CC(c1ccc(O)cc1)C1(O)CCCCC1.O=C(O)CCC(=O)O` (stereo unspecified) [DESVENLAFAXINE SUCCINATE], the “Bacterial Biotransformation” value was “Compound NOT metabolized”.

For another data set the following is noted: bacteroides thetaiotaomicron, 12 h, 2 µM.
Description: The drug is tested on Bacteroides thetaiotaomicron strain: 3731 for biotransformation. The drug concentrations were measured before and after a 12-h incubation by liquid-chromatography-coupled mass spectrometry (LC–MS)
As to `CC(C)(C(=O)O)c1ccc(C(O)CCCN2CCC(C(O)(c3ccccc3)c3ccccc3)CC2)cc1` (stereo unspecified) [FEXOFENADINE], the “Bacterial Biotransformation” value was “Compound NOT metabolized”.

Consider `Cc1cc2c(cc1S(N)(=O)=O)S(=O)(=O)CCC2`, for which the “Bacterial Biotransformation” value is given as “Compound NOT metabolized”.

On to `CN(C)CC(c1ccc(O)cc1)C1(O)CCCCC1.O=C(O)CCC(=O)O` (stereo unspecified) [DESVENLAFAXINE SUCCINATE], for which the “Bacterial Biotransformation” value is listed as “Compound NOT metabolized”.

The conditions of the next data set: limosilactobacillus reuteri cf48-3a, 12 h, 2 µM.
Description: The drug is tested on Lactobacillus reuteri CF48-3A strain: BEI HM-102 for biotransformation. The drug concentrations were measured before and after a 12-h incubation by liquid-chromatography-coupled mass spectrometry (LC–MS)
For `CC(C)(C(=O)O)c1ccc(C(O)CCCN2CCC(C(O)(c3ccccc3)c3ccccc3)CC2)cc1` (stereo unspecified) [FEXOFENADINE], the “Bacterial Biotransformation” value is on record as “Compound NOT metabolized”.

As to `Cc1cc2c(cc1S(N)(=O)=O)S(=O)(=O)CCC2`, the “Bacterial Biotransformation” value was “Compound NOT metabolized”.

For another data set the following is noted: roseburia intestinalis, 12 h, 2 µM.
Description: The drug is tested on Roseburia intestinalis strain: L1-82 for biotransformation. The drug concentrations were measured before and after a 12-h incubation by liquid-chromatography-coupled mass spectrometry (LC–MS)
On to `CC(C)(C(=O)O)c1ccc(C(O)CCCN2CCC(C(O)(c3ccccc3)c3ccccc3)CC2)cc1` (stereo unspecified) [FEXOFENADINE], for which the “Bacterial Biotransformation” value is listed as “Compound NOT metabolized”.

In the case of `Cc1cc2c(cc1S(N)(=O)=O)S(=O)(=O)CCC2`, the “Bacterial Biotransformation” value is reported as “Compound NOT metabolized”.

As to `CN(C)CC(c1ccc(O)cc1)C1(O)CCCCC1.O=C(O)CCC(=O)O` (stereo unspecified) [DESVENLAFAXINE SUCCINATE], the “Bacterial Biotransformation” value is “Compound NOT metabolized”.

For the next data set the following is noted: akkermansia muciniphila, 12 h, 2 µM.
Description: The drug is tested on Akkermansia muciniphila strain: ATCC BAA-835 for biotransformation. The drug concentrations were measured before and after a 12-h incubation by liquid-chromatography-coupled mass spectrometry (LC–MS)
As to `CC(C)(C(=O)O)c1ccc(C(O)CCCN2CCC(C(O)(c3ccccc3)c3ccccc3)CC2)cc1` (stereo unspecified) [FEXOFENADINE], the “Bacterial Biotransformation” value is “Compound NOT metabolized”.

For `Cc1cc2c(cc1S(N)(=O)=O)S(=O)(=O)CCC2`, the “Bacterial Biotransformation” value is given as “Compound NOT metabolized”.

Take `CN(C)CC(c1ccc(O)cc1)C1(O)CCCCC1.O=C(O)CCC(=O)O` (stereo unspecified) [DESVENLAFAXINE SUCCINATE]: the “Bacterial Biotransformation” value is “Compound NOT metabolized”.
